Measurements: patent publication US11753408B2, “Compounds and method for blocking transmission of malarial parasite” (The United States of America, as represented by the …, priority 2016, dated 2023)

Columns and labels:
[1] = test system: Stage III-V gametocytes (blood stage P. falciparum parasites); assay: In vitro drug activity on gametocytes (AlamarBlue viability assay); format: cell-based, Plasmodium falciparum; conditions: read-out: Gametocyte EC50
In short: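 P. falciparum 3D7 stage III–V gametocytes (also HB3, Dd2), enriched by 50 mM N-acetylglucosamine and Percoll gradient, seeded at 20,000/well with compound for 72 h at 37° C, 5% CO2. AlamarBlue then added for 24 h; viability read as fluorescence (Ex 525, Em 598 nm).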

mTOR = mTOR (Homo sapiens, UniProt P42345); assay: mTOR activity (no method described); format: biochemical
[2] = Microsomal stability (rat); format: in vitro ADME; conditions: rat microsomes
Solubility at pH 7.4 = format: physicochemical
PAMPA permeability = format: in vitro ADME
[3] = test system: Asexual parasites of P. falciparum strain 3D7; assay: In vitro drug activity on asexual parasites (SYBR Green assay); format: cell-based, Plasmodium falciparum
In short: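 3D7 parasites at 0.5% parasitemia and 2% hematocrit were exposed to drugs (DMSO ≤0.5%) for 72 h under standard culture conditions, in duplicate. After freeze-thaw lysis, SYBR Green I lysis buffer was added for 30 min at room temperature, and fluorescence was read at 490/520 nm.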

## CC(C)(N)c1cccc(-c2ccc3ncc4ccc(=O)n(-c5ccc(C(=O)N6CCOCC6)cc5)c4c3c2)c1 [Compound 197]
[1]
  EC50: 65100 nM
mTOR
  mTOR: 2.384 µM
[2]
  Microsomal Stability (rat) T1/2: >30 min
Solubility at pH 7.4
  Sol @ pH 7.4: >77 ug/mL
PAMPA permeability
  PAMPA Permeability: 3.5 ×10⁻⁶ cm/s

## O=C(NC1CCCCCC1)c1ccc(-n2c(=O)ccc3cnc4ccc(-c5ccc(Cl)cc5)cc4c32)cc1 [Compound 157]
[1]
  EC50: 7430 nM
[3]
  EC50: 3350 nM
mTOR
  mTOR: 50 µM
[2]
  Microsomal Stability (rat) T1/2: 6.8 min
Solubility at pH 7.4
  Sol @ pH 7.4: <1.0 ug/mL
PAMPA permeability
  PAMPA Permeability: < 1 ×10⁻⁶ cm/s

## O=C(c1ccc(-n2c(=O)ccc3cnc4ccc(-c5ccc(Cl)cc5)cc4c32)cc1)N1C2CCC1CC(O)C2 (stereo not drawn) [Compound 139]
[1]
  EC50: 153 nM
[3]
  EC50: 20.6 nM
mTOR
  mTOR: 0.4051 µM
[2]
  Microsomal Stability (rat) T1/2: 4.3 min
Solubility at pH 7.4
  Sol @ pH 7.4: <1.0 ug/mL
PAMPA permeability
  PAMPA Permeability: 238 ×10⁻⁶ cm/s

## CN1CCN(C(=O)c2ccc(-n3c(=O)ccc4cnc5ccc(-c6ccc(Cl)cc6)cc5c43)cc2)CC1 [Compound 102]
[1]
  EC50: 116 nM
[3]
  EC50: 186 nM
mTOR
  mTOR: 5.191 µM
[2]
  Microsomal Stability (rat) T1/2: 5 min
Solubility at pH 7.4
  Sol @ pH 7.4: 7.5 ug/mL
PAMPA permeability
  PAMPA Permeability: 1080 ×10⁻⁶ cm/s

## N#Cc1ccc(-c2ccc3ncc4ccc(=O)n(-c5ccc(C(=O)N6CCOCC6)cc5)c4c3c2)cc1 [Compound 170]
[1]
  EC50: 168 nM
[3]
  EC50: 122 nM
mTOR
  mTOR: 3.773 µM
[2]
  Microsomal Stability (rat) T1/2: 13.3 min
Solubility at pH 7.4
  Sol @ pH 7.4: 2.7 ug/mL
PAMPA permeability
  PAMPA Permeability: 591 ×10⁻⁶ cm/s

## CN(C)Cc1ccc(-c2ccc3ncc4ccc(=O)n(-c5ccc(C(=O)N6CC7CC6CN7C)cc5)c4c3c2)cc1 (stereo not drawn) [Compound 165]
[1]
  EC50: 4090 nM
[3]
  EC50: 934 nM
mTOR
  mTOR: 50 µM
[2]
  Microsomal Stability (rat) T1/2: >30.0 min
Solubility at pH 7.4
  Sol @ pH 7.4: >80.0 ug/mL
PAMPA permeability
  PAMPA Permeability: 1.8 ×10⁻⁶ cm/s

## Cc1ccc(C#N)cc1-n1c(=O)n(C)c2cnc3ccc(-c4ccc(Cl)cc4)cc3c21 [Compound 400]
[1]
  EC50: 294 nM
[3]
  EC50: 165 nM
mTOR
  mTOR: 100 µM
[2]
  Microsomal Stability (rat) T1/2: >30.0 min
Solubility at pH 7.4
  Sol @ pH 7.4: <1.0 ug/mL
PAMPA permeability
  PAMPA Permeability: 1460 ×10⁻⁶ cm/s

## CN(C)Cc1ccc(-c2ccc3ncc4ccc(=O)n(-c5ccc(C(=O)N6CC7CN(C)CC7C6)cc5)c4c3c2)cc1 (stereo not drawn) [Compound 161]
[1]
  EC50: 1540 nM
[3]
  EC50: 512 nM
mTOR
  mTOR: 47.05 µM
[2]
  Microsomal Stability (rat) T1/2: >30.0 min
Solubility at pH 7.4
  Sol @ pH 7.4: >82.0 ug/mL
PAMPA permeability
  PAMPA Permeability: 5.4 ×10⁻⁶ cm/s

## O=C1NCc2cc(-c3ccc4ncc5ccc(=O)n(-c6ccc(C(=O)N7CCOCC7)cc6)c5c4c3)ccc21 [Compound 129]
[1]
  EC50: 680 nM
[3]
  EC50: 1440 nM
mTOR
  mTOR: 0.8567 µM
[2]
  Microsomal Stability (rat) T1/2: >30.0 min
Solubility at pH 7.4
  Sol @ pH 7.4: 20.3 ug/mL
PAMPA permeability
  PAMPA Permeability: 5.4 ×10⁻⁶ cm/s

## COc1cc(C(=O)N2CCOCC2)ccc1-n1c(=O)ccc2cnc3ccc(-c4ccc(F)cc4)cc3c21 [Compound 194]
[1]
  EC50: 702 nM
mTOR
  mTOR: 100 µM
[2]
  Microsomal Stability (rat) T1/2: 6.9 min
Solubility at pH 7.4
  Sol @ pH 7.4: <1 ug/mL
PAMPA permeability
  PAMPA Permeability: 1080 ×10⁻⁶ cm/s

## NC(=O)c1ccc(-n2c(=O)ccc3cnc4ccc(-c5ccc(N)nc5)cc4c32)cc1 [Compound 336]
[1]
  EC50: 41 nM
[3]
  EC50: 10.2 nM
mTOR
  mTOR: 0.01971 µM
[2]
  Microsomal Stability (rat) T1/2: >30.0 min
Solubility at pH 7.4
  Sol @ pH 7.4: <1.0 ug/mL
PAMPA permeability
  PAMPA Permeability: < 3.6 ×10⁻⁶ cm/s

## O=C(c1ccc(-n2c(=O)ccc3cnc4ccc(-c5ccc(Cl)cc5)cc4c32)cc1)N1CCN(CCO)CC1 [Compound 109]
[1]
  EC50: 18 nM
[3]
  EC50: 60.7 nM
mTOR
  mTOR: 3.26 µM
[2]
  Microsomal Stability (rat) T1/2: 12.3 min
Solubility at pH 7.4
  Sol @ pH 7.4: 4.2 ug/mL
PAMPA permeability
  PAMPA Permeability: 227 ×10⁻⁶ cm/s

## CN(C(=O)c1ccc(-n2c(=O)ccc3cnc4ccc(-c5ccc(Cl)cc5)cc4c32)cc1)C1CC1 [Compound 143]
[1]
  EC50: 242 nM
[3]
  EC50: 63.1 nM
mTOR
  mTOR: 0.6716 µM
[2]
  Microsomal Stability (rat) T1/2: 1.6 min
Solubility at pH 7.4
  Sol @ pH 7.4: <1.0 ug/mL
PAMPA permeability
  PAMPA Permeability: 1420 ×10⁻⁶ cm/s

## N#Cc1cccc(-n2c(=O)n(CCO)c3cnc4ccc(-c5ccc(Cl)cc5)cc4c32)c1 [Compound 404]
[1]
  EC50: 1640 nM
[3]
  EC50: 681 nM
mTOR
  mTOR: 50 µM
[2]
  Microsomal Stability (rat) T1/2: >30.0 min
Solubility at pH 7.4
  Sol @ pH 7.4: 0.9 ug/mL
PAMPA permeability
  PAMPA Permeability: 19.5 ×10⁻⁶ cm/s

## O=C1Cc2cc(-c3ccc4ncc5ccc(=O)n(-c6ccc(C(=O)N7CCOCC7)cc6)c5c4c3)ccc2N1 [Compound 127]
[1]
  EC50: 169 nM
[3]
  EC50: 105 nM
mTOR
  mTOR: 0.3387 µM
[2]
  Microsomal Stability (rat) T1/2: 12.2 min
Solubility at pH 7.4
  Sol @ pH 7.4: 7.3 ug/mL
PAMPA permeability
  PAMPA Permeability: 9.1 ×10⁻⁶ cm/s

## N#Cc1cccc(-c2ccc3ncc4ccc(=O)n(-c5ccc(C(=O)N6CCOCC6)cc5)c4c3c2)c1 [Compound 124]
[1]
  EC50: 349 nM
[3]
  EC50: 144 nM
mTOR
  mTOR: 1.357 µM
[2]
  Microsomal Stability (rat) T1/2: 19.7 min
PAMPA permeability
  PAMPA Permeability: 20.4 ×10⁻⁶ cm/s

## COc1cc(C(=O)NC2CC2)ccc1-n1c(=O)ccc2cnc3ccc(-c4ccc(F)cc4)cc3c21 [Compound 188]
[1]
  EC50: 602 nM
mTOR
  mTOR: 7.201 µM
[2]
  Microsomal Stability (rat) T1/2: 21.5 min
Solubility at pH 7.4
  Sol @ pH 7.4: <1 ug/mL
PAMPA permeability
  PAMPA Permeability: 1250 ×10⁻⁶ cm/s

## O=C(c1ccc(-n2c(=O)ccc3cnc4ccc(-c5cccc(Cl)c5)cc4c32)cc1)N1CCOCC1 [Compound 122]
[1]
  EC50: 371 nM
[3]
  EC50: 261 nM
mTOR
  mTOR: 1.303 µM
[2]
  Microsomal Stability (rat) T1/2: 5.4 min
PAMPA permeability
  PAMPA Permeability: 822 ×10⁻⁶ cm/s

## CCc1ccc(-c2ccc3ncc4ccc(=O)n(-c5ccc(C(=O)N6CCOCC6)cc5)c4c3c2)cc1 [Compound 195]
[1]
  EC50: 276 nM
mTOR
  mTOR: 0.7814 µM
[2]
  Microsomal Stability (rat) T1/2: 8.8 min
Solubility at pH 7.4
  Sol @ pH 7.4: <1 ug/mL
PAMPA permeability
  PAMPA Permeability: 148 ×10⁻⁶ cm/s

## Cc1cc(C(=O)NC2CC2)ccc1-n1c(=O)ccc2cnc3ccc(-c4ccc(Cl)cc4)cc3c21 [Compound 88]
[1]
  EC50: 141 nM
[3]
  EC50: 56.7 nM
mTOR
  mTOR: 1.841 µM
Solubility at pH 7.4
  Sol @ pH 7.4: 0.51 ug/mL
PAMPA permeability
  PAMPA Permeability: 117 ×10⁻⁶ cm/s

## O=C(c1ccc(-n2c(=O)ccc3cnc4ccc(-c5ccc(CN6CCC6)cc5)cc4c32)cc1)N1CCOCC1 [Compound 189]
[1]
  EC50: 358 nM
mTOR
  mTOR: 6.514 µM
[2]
  Microsomal Stability (rat) T1/2: >30 min
Solubility at pH 7.4
  Sol @ pH 7.4: >78 ug/mL
PAMPA permeability
  PAMPA Permeability: 212 ×10⁻⁶ cm/s

## Cc1cccc(-c2ccc3ncc4ccc(=O)n(-c5ccc(C(=O)N6CCOCC6)cc5)c4c3c2)c1 [Compound 121]
[1]
  EC50: 443 nM
[3]
  EC50: 221 nM
mTOR
  mTOR: 0.5226 µM
[2]
  Microsomal Stability (rat) T1/2: 5.4 min
PAMPA permeability
  PAMPA Permeability: 243 ×10⁻⁶ cm/s

## COc1cc(C(=O)NC2CC2)ccc1-n1c(=O)ccc2cnc3ccc(-c4ccc(Cl)cc4)cc3c21 [Compound 191]
[1]
  EC50: 172 nM
mTOR
  mTOR: 4.337 µM
[2]
  Microsomal Stability (rat) T1/2: 26.7 min
Solubility at pH 7.4
  Sol @ pH 7.4: 2.4 ug/mL
PAMPA permeability
  PAMPA Permeability: 606 ×10⁻⁶ cm/s

## COc1cc(C(=O)N2CCOCC2)ccc1-n1c(=O)ccc2cnc3ccc(-c4ccc(CN(C)C)cc4)cc3c21 [Compound 193]
[1]
  EC50: 814 nM
mTOR
  mTOR: 8.29 µM
[2]
  Microsomal Stability (rat) T1/2: >30 min
Solubility at pH 7.4
  Sol @ pH 7.4: >81 ug/mL
PAMPA permeability
  PAMPA Permeability: 162 ×10⁻⁶ cm/s

## O=Cc1ccc(-c2ccc3ncc4ccc(=O)n(-c5ccc(C(=O)N6CCOCC6)cc5)c4c3c2)cc1 [Compound 169]
[1]
  EC50: 630 nM
[3]
  EC50: 301 nM
mTOR
  mTOR: 0.6315 µM
Solubility at pH 7.4
  Sol @ pH 7.4: 2.8 ug/mL
PAMPA permeability
  PAMPA Permeability: 204 ×10⁻⁶ cm/s
